Measured values from patent US20150104430A1, “Methods and Compositions for Generating Pancreatic Progenitors and Functional Beta Cells from hPSCs” (University Health Network, priority 2012, published 2015).

What was measured:
[1] = tested on: human fetal pancreatic cells; settings: Otonkoski et al., 1993; cited from earlier work
[2] = tested on: human ES cell line: H9 (WA09); experiment: Percentage of NKX6-1+ cells after stage 4 treatment of H9 (WA09)-derived endodermal cells; assay type: cell-based; settings: day 13 of differentiation, treatment at stage 4

| Molecule | induction of endocrine differentiation [1] | Percentage of NKX6-1+ cells [2] [%] |
| --- | --- | --- |
| NC(=O)c1cccnc1 [Nicotinamide (NA), Nicotinamide] | potent inducer of endocrine differentiation | 14.0 |
| EGF [EGF (E)] |  | 18.5 |
| Noggin (protein, UniProt Q13253 28-232, looked up, bone morphogenetic protein antagonist having Gene ID: 9241) Noggin: QHYLHIRPAPSDNLPLVDLIEHPDPIFDPKEKDLNETLLRSLLGGHYDPGFMATSPPEDRPGGGGGAAGGAEDLAELDQLLRQRPSGAMPSEIKGLEFSEGLAQGKKQRLSKKLRRKLQMWLWSQTFCPVLYAWNDLGSRFWPRYVKVGSCFSKRSCSVPEGMVCKPSKSVHLTVLRWRCQRRGGQRCGWIPIQYPIISECKCSC |  | 21.7 |
